Measured values: paper PMC5735336, “Microwave-assisted synthesis and antitumor evaluation of a new series of thiazolylcoumarin derivatives” (EXCLI Journal, 2017)

Assays:
[1] = system: kidney fibroblast (COS-7) cancer cell line; experiment: In vitro antitumor screening, MTT assay, COS-7; type: cell-based; conditions: Chlorocebus aethiops, 50% inhibition of cell viability, COS-7 cell line
Description: (§1) The new analogs were tested for in vitro antitumor efficacy adopting the reported procedure (Mosmann, 1983[46]; Denizot and Lang, 1986[13]; Gerlier and Thomasset, 1986[21]).
(§2) In vitro antitumor screening of compounds 5a-t was carried out on cervical (Hela) and kidney fibroblast (COS-7) cancer cell lines in accord to MTT assay (Mosmann, 1983[46]; Denizot and Lang, 1986[13]; Gerlier and Thomasset, 1986[21]) and utilizing doxorubicin as a standard drug. The concentrations of the compounds that cause 50% inhibition of cell viability (IC50, µM) were calculated. […]
In vitro antitumor screening […]
(§3) HCT-116 (colon) and MCF-7 (breast) cancer cell lines adopting MTT assa y (Mosmann, 1983; Denizot and Lang, 1986; Gerlier and Thomasset, 1986) and usin g 5- fluorouracil as a reference antitumor agent. Cells were cultured in Roswell Park Memorial Institute (RPM I) 1640 medium wit h 10% fetal bovine serum, penicillin (100 units/mL) and streptomycin (100 µg/mL) at 37 ° C in an atmosphere of 5% CO 2 were added.
(§4) Cells were placed in 96-multiwell microtiter plates (10^4 cells/well), for 24 h rs at 37 °C and in an atmosphere of 5% CO2 before tr eatment with the compounds to allow attachment of the cells to the wall of the plate. The tested compounds were dissolved in DMSO and diluted with phosphate buffer saline (PBS) to obtain different concentrations. Tested compounds of dif-ferent concentrations were added to each well and cells were incubated with the compounds for 48 hrs at 37 °C and in an atmosphere of 5% CO2. All tests were performed in triplicates.
(§5) The treated cells were wash ed with PBS and 100 µL of 3 -(4,5-dimeth ylthiazol-2-yl )-2,5-diphe-n yltetrazolium bromide solution (MTT) (5 mg/m L MTT st ock in PBS diluted to 1 mg/ mL with 10% RPMI-1640 medium) was added. The 9 6 -multiwell plates were read b y microarra y read er Perkinelmer vector 3V multilabel counter model 1420 (Perkinelmer, Boston, MA) for optical densit y at 490 nm (Mosmann, 1983; Denizot and Lang, 1986; Gerlier and Thomasset, 1986).
(§6) The relative percenta ge cell viabilit y was calculate d from the following equation: […]
(§7) The relation between surviving fraction and drug concentration is plotted to get the survival curve for HepG2, HCT-116 and M CF-7 cancer cell lines . […]
(§8) Denizot F, Lang R. Rapid colorimetric assa y for cell growth and survival. Modifications to the tetrazolium dye procedure giving improved sensitivity an d reliability. J Immunol Methods. 1986;89:271-7.
(§9) Gerlier D, Thomasset T. Use of MTT colorimetric assa y to measure cell activation. J Immunol Methods. 1986; […]
(§10) Mosmann T. Rapid colorimetric assa y for cellular growth and survival: Application to proliferation and cytotox- […]
(§11) Oberling C, Gu erin M. The role of viruses in the production of cancer . Ad v Cancer Res. 1954;2:353-423.
(§12) Sheeja KR, Kuttan G, Kuttan R. C ytotox ic and antitumour activit y of Berberin. Amala Res Bull. 1997;17:73-6.

EAC cells = experiment: In vivo antitumor screening against EAC cells in mice; conditions: 0.5 mg/mouse; for Hb / RBCs Count / WBCs Count: blood profile of mice inoculated with EAC cells; for Viable tumor cell count/100 μL / Tumor volume / Mean survival time / % Increase in lifespan: mice inoculated with EAC cells; for Viable tumor cell count/100 μL: after five days of treatment, trypan blue; for Tumor volume: ascitic fluid; for Mean survival time: treatment for nine days; for % Increase in lifespan: %ILS = [(MST treated/MST positive control)-1] x 100
Description: In vivo antitumor assessment of 5f, 5h, 5m and 5r was performed according to the literature method (Oberling and Guerin, 1954[48]; Sheeja et al., 1997[64]; Clarkson and Burchenal, 1965[9]).
Results of in vivo antitumor screening of compounds 5f, 5h, 5m and 5r (showing the highest in vitro antitumor activity) against EAC cells in mice are listed in Tables 2-4(Tab. 2)(Tab. 3)(Tab. 4). The % increase in lifespan of EAC inoculated mice (%ILS), the decrease in viable tumor cell count and the retrieval of normal blood profile are three substantial measures used for estimation of antitumor efficacy of the selected compounds and 5-fluorouracil (5-FU) (standard agent) (Oberling and Guerin, 1954[48]; Sheeja et al., 1997[64]; Clarkson and Burchenal, 1965[9]). The mean survival time (MST) of each group was rated and %ILS of mice inoculated with EAC cells was determined adopting the equation: %ILS = [(MST of treated group/ MST of positive control group)-1] x 100, where MST = days of the mouse in a group/total no. of mice. […] Also, this compound produced considerable decrease in viable tumor cell count (Table 3(Tab. 3)). […]
In vivo antitumor screening
Swiss male albino mice (wei ghing 20-25 g) were utilized. The y were dwelled in microlon boxes at temperature 25 ± 2 °C with a regular 12 hrs light/dark cycl e, in addition, food and water intake were permitted.
EAC cells were acquir ed from the NCI, Cairo, Egypt.
Mice were divided into 7 groups (n= 6).
Group 1: Negative contr ol (no EAC cells) - recei ved normal saline.
Group 2: Positive control (EAC cells) - receiv ed normal saline.
Group 3: EAC cells - received compound 5f (0.5 mg/mouse).
Group 4: EAC cells - received compound 5h (0.5 mg/mouse).
Group 5: EAC cells - received compound 5m (0.5 mg/mouse).
Group 6: EAC cells - received compound 5r (0.5 mg/mouse).
Group 7: EAC cells - received 5-fluorouracil (0.5 mg/mouse).
2 x 10^6 cells were inoc ulated intraperitoneall y t o each mouse in all groups ex cept the neg-ative control group. The tr eatment began 24 hrs after inoculation (0.5 mg/mouse) and con-tinued for nine days (Oberlin g and Gu erin, 19 54; Sheeja et al., 1997; Clarkson and Burch enal, […]
Determination of tumor volume
The ascetic fluid was gath ered from the peritoneal cavit y of dissected mice. It was th en centrifuged for 5 min and the tumor cell volume was set.
Determination of viable tumor cell count after five days of treatment
EAC cells (100 μ L, from three mice of each group) were obtained and diluted to twent y-fold with saline. The cells were st ained with tr ypan blue, t he dead cells are stained, whereas […]
The number of viable cells was counted. […]
Clarkson BD, Burchenal JH. Preliminary screening of antineoplastic drugs. Prog Clin Cancer. 1965;1:625-9. […]
as §11, §12

[2] = system: cervical (Hela) cancer cell line; experiment: In vitro antitumor screening, MTT assay, Hela; type: cell-based; conditions: Homo sapiens, 50% inhibition of cell viability
Description: as §1, §2
(§13) In vitro antitumor screening
as §3, with “Compounds 5a-t were screened for in vitro antitumor activity against HepG2 (liver), HCT-116” for “HCT-116”
as §4, §5, §6, §7, §8, §9, §10, §11, §12

[3] = In vitro cytotoxicity testing, MTT assay, W138 normal cells; type: cell-based; conditions: W138 normal lung fibroblast cells, human normal lung fibroblast W138, read-out: IC50 W138 normal cell line
Description: In vitro cytotoxic activity of 5f, 5h, 5m and 5r was evaluated in accord to the reported method (Mosmann, 1983[46]; Denizot and Lang, 1986[13]; Gerlier and Thomasset, 1986[21]).
The effective antitumor compounds, 5f, 5h, 5m and 5r were further assessed for in vitro cytotoxicity toward human normal lung fibroblast (W138) cell line (Mosmann, 1983[46]; Denizot and Lang, 1986[13]; Gerlier and Thomasset, 1986[21]). IC50 values (µM) of the tested compounds and 5-FU (reference cytotoxic agent) were calculated. […]
as §13
as §3, with “Compounds 5a-t were screened for in vitro antitumor activity against HepG2 (liver), HCT-116” for “HCT-116”
as §4, §5, §6, §7
In vitro cytotoxicity testing […]
J Immunol Methods. 1986;89:271-7.
as §9, §10, §11, §12

SMILES | IC50 [1] [µM] | Hb (EAC cells) [g/dL] | RBCs Count (EAC cells) | WBCs Count (EAC cells) | Viable tumor cell count/100 μL (EAC cells) | Tumor volume (EAC cells) [mL] | Mean survival time (EAC cells) [days] | % Increase in lifespan (EAC cells) [%] | IC50 [2] [µM] | IC50 at 48 h [3] [µM]
O=c1oc2ccccc2cc1-c1csc(NN=Cc2c(Cl)cccc2Cl)n1 [5f, 3-(2-(2-(2,6-Dichlorobenzylidene)hydrazino)thiazol-4-yl)-2H-chromen-2-one] | > 50 | 12.92 | 5.14 10^6/mm^3 | 8.41 10^3/mm^3 | 25.83x10^6 /100 μL | 2.62 | 41.0 | 182.7 | 1.9 | 36.2
O=c1[nH]cc(F)c(=O)[nH]1 [5-Fluorouracil, 5-fluorouracil, reference compound] | – | 12.96 | 5.21 10^6/mm^3 | 8.86 10^3/mm^3 | 20.17x10^6 /100 μL | 1.60 | 49.0 | 237.9 | – | 5.73
O=c1oc2ccccc2cc1-c1csc(NN=Cc2cc([N+](=O)[O-])ccc2Cl)n1 [5h, 3-(2-(2-(2-Chloro-5-nitrobenzylidene)hydrazino)thiazol-4-yl)-2H-chromen-2-one] | 1.96 | 11.97 | 4.92 10^6/mm^3 | 9.25 10^3/mm^3 | 32.57x10^6 /100 μL | 3.12 | 39.3 | 171.0 | 1.42 | 19.8
O=c1oc2ccccc2cc1-c1csc(NN=Cc2c3ccccc3c(Cl)c3ccccc23)n1 [5r, 3-(2-(2-((10-Chloroanthracen-9-yl)-methylidene)hydrazino)thiazol-4-yl)-2H-chromen-2-one] | 1.66 | 13.10 | 5.55 10^6/mm^3 | 7.45 10^3/mm^3 | 21.94x10^6 /100 μL | 2.11 | 45.5 | 213.8 | 1.29 | 24.3
O=c1oc2ccccc2cc1-c1csc(NN=Cc2ccc[nH]2)n1 [5m, 3-(2-(2-((1H-Pyrrol-2-yl)methylidene)hydrazino)thiazol-4-yl)-2H-chromen-2-one] | 12.5 | 11.43 | 4.39 10^6/mm^3 | 9.61 10^3/mm^3 | 40.52x10^6 /100 μL | 3.85 | 37.0 | 155.2 | 6.25 | 29.5
